Experimental data: patent publication US5321046A, “Hypocholesterolemic unsymmetrical dithiol ketals” (Bristol-Myers Squibb Company, priority 1992, dated 1994)
Read-outs that look alike come from different tables or passages of the source.

Legend:
[1] = test system: hydroxymethylglutaryl coenzyme A reductase (HMGcoA reductase); assay: HMGCo-A reductase suppression; format: cell-based
HepG2 cells = assay: HepG2 Cell Culture Model--14C-Acetate Incorporation Assay (cholesterol biosynthesis); format: cell-based; conditions: Homo sapiens
Description: (a) Isolated Hepatocyte cholesterol biosynthesis assay: HepG2 Cell Culture Model--14C-Acetate Incorporation Assay
HepG2 cells obtained from the American Type Culture Collection were routinely passed in RPMI-1640 plus 10% fetal bovine serum (FBS) and were subculture into 35 mm diameter wells for experiments. […] The LDS medium supplement was prepared according to Cham et al., J. Lipid Res., 17: 176-181, (1976). After about 16 hours in LDS containing media, test compounds were added in dimethylsulfoxide vehicle (0.5% v/v final conc.) for the period of time indicated in the data (generally 4 hours). Cholesterol synthesis was then directly determined by the incorporation of 2-14C-acetate (1.8-3.0 mCi/mmol) into digitonin-precipitable sterols essentially as described for the rat hepatocyte method above. Greater than 97% of the radiolabelled sterol isolated by this procedure was cholesterol as judged by HPLC. Percent inhibition was calculated from the average of duplicates or triplicates vs. controls receiving vehicle.

[2] = In vivo cholesterol biosynthesis in hamsters (plasma lipids); design: species or system hamsters (male F1 B)
Description: (c) In vivo cholesterol biosynthesis in hamsters was assayed using the following protocol: four groups of hamsters (male F1 B, fed 0.5% cholesterol 10% coconut oil), average weight 120-150 gm, were run in parallel (N=10 per group). The animals were initially fed the atherogenic diet for 20 days to determine their pre-drug plasma lipid levels. They were randomized so that each group had the same average plasma total cholesterol. The three of the four groups were started on their respective drug containing diet (day 0), while the remaining group served as controls.

[3] = HepG2, read-out: HEPG2 Sterol biosynthesis inhibition @ 10 μM
[4] = HepG2 cells, 14C-acetate incorporation, generally 4 hours, read-out: HepG2 @ 10 μM (inhibition of cholesterol biosynthesis)
[5] = plasma, Day 0 (pre-drug), atherogenic diet, N=10 per group

SMILES	HMGCo-A reductase suppression @ 10 μM [1]	inhibition at 10 µM (HepG2 cells; [3])	inhibition at 10 µM (HepG2 cells; [4])	reduction in LDL-cholesterol over control ([2]; F1 B hamsters, over control)	reduction in overall cholesterol over control ([2]; F1 B hamsters, over control)	LDL Cholesterol, Day 0 [2, 5]	Total cholesterol, Day 0 [2, 5]	LDL Cholesterol, Day 21 ([2]; plasma, Day 21, drug containing diet, control 333 ± 137)	Total cholesterol, Day 21 ([2]; plasma, Day 21, drug containing diet, control 407 ± 144)	down-regulation of HMGcoA reductase (in words) ([1]; in words)
CC(C)=CCCC(C)=CCCC(C)=CCSC(C)(C)Sc1ccc(O)cc1 [Example 11, 4-[[1-Methyl-1-[(3,7,11-trimethyl-2,6,10-dodecatrienyl)thio]ethyl]thio]phenol]	37%	63%	63%	-25%	-18%	319 ± 89 mg/dL	399 ± 82 mg/dL	256 ± 85 mg/dL	336 ± 90 mg/dL	
CC(=O)Oc1ccc(SC(C)(C)SCC=C(C)CCC=C(C)CCC=C(C)C)c(C)c1 [Example 15, 3-Methyl-4-[[1-methyl-1-[(3,7,11-trimethyl-2,6,10-dodecatrienyl)thio]ethyl]thio]phenol acetate]			75%							
CCOC(=O)C(C)(SCC=C(C)CCC=C(C)CCC=C(C)C)Sc1cc(C)c(O)c(C)c1 (stereo not drawn) [Example 27, Propanoic Acid, 2-[(4-hydroxy-3,5-dimethylphenyl)thio]-2-[(3,7,11-trimethyl-2,6,10-dodecatrienyl)thio]ethyl ester]	51%	79%	79%							down-regulate the key enzyme in the cholesterol biosynthesis
CC(C)=CCCC(C)=CCCC(C)=CCSC(C)(C)Sc1ccc(F)cc1 [Example 36, 4-Fluoro-1-[[1-methyl-1-[(3,7,11-trimethyl-2,6,10-dodecatrienyl)thio]ethyl]thio]benzene]			20%							
